Measurements as given in patent US9133183B2, “Imidazolidinones and analogs exhibiting anti-cancer and anti-proliferative activities” (Deciphera Pharmaceuticals, LLC, priority 2013, dated 2015).

Test system: MDA-MB-231-luc-D3H2LN human breast carcinoma xenograft
Assay: MDA-MB-231 xenograft study
Assay type: in vivo, mouse
Settings: orally dosed at 30 mg/kg twice daily
Description: MDA-MB-231 Xenograft Study
To evaluate the in vivo anti-cancer activity compounds of formula I, a MDA-MB-231-luc-D3H2LN human breast carcinoma xenograft was employed. Briefly, MDA-MB-231-luc-D3H2LN cells were obtained from Xenogen and expanded in Minimal Essential Media (MEM) with EBSS which was modified with 1% L-glutamine and supplemented with 10% FBS, 1% PSG, 1% non-essential amino acids, and 1% sodium pyruvate. The growth environment was maintained in an incubator with a 5% CO2 atmosphere at 37° C. Cells were harvested and re-suspended using 50% serum-free media and 50% Matrigel® to generate a stock concentration of 5×10^6 cells/mL.
Six to 7 week old female C.B-17/IcrHsd-PrkdcscidLystbg mice were injected with 200 μL of cell suspension subcutaneously, just below the right axilla. All procedures carried out in this experiment were conducted in compliance with all the laws, regulations and guidelines of the National Institutes of Health (NIH). Treatment began when the mean tumor burden was approximately 150 mg. All mice were dosed with test compound by oral gavage. Body weights and tumor measurements were recorded three times weekly. […] Images were analyzed using Living Image (Xenogen, Alameda, Calif.) software. […]

Structure (SMILES): COCCN1CCN(C(=O)Nc2ccc(Oc3ccnc(-c4cnn(C)c4)c3)c(C)n2)C1=O [Example 18, 3-(2-methoxyethyl)-N-(6-methyl-5-((2-(1-methyl-1H-pyrazol-4-yl)pyridin-4-yl)oxy)pyridin-2-yl)-2-oxoimidazolidine-1-carboxamide]
- tumor growth inhibition: 51%
